Laboratory results from patent US8748415B2 (priority 2011, dated 2014).

Tested on: recombinant NL4-3 virus (Renilla luciferase in nef, Gag P373S)
Experiment: HIV cell culture assay (luciferase activity in MT-2 cells infected with NLRluc recombinant virus)
Format: cell-based
Details: NL43, MT-2 cells infected 4-5 days with NLRluc recombinant virus
How it was run: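 Activity was read as luciferase output (Dual Luciferase reagents premixed with lysis solution) after 4–5 days of infection in serially diluted inhibitor. Host cells were MT-2 in 10% FBS RPMI. The reporter virus came from transfected 293T cells and was titered on MT-2.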

| Compound | EC50 (class symbol) [nM] | EC50 (numeric value) [nM] |
| --- | --- | --- |
| C=C(C)[C@@H]1CC[C@]2(CNC(=O)C(F)(F)C(=O)O)CC[C@]3(C)[C@H](CC[C@@H]4[C@@]5(C)CC=C(c6ccc(C(=O)O)cc6)C(C)(C)[C@@H]5CC[C@]43C)[C@@H]12 [Example 153, 4-((1R,3aS,5aR,5bR,7aR,11aS,11bR,13aR,13bR)-3a-((2-carboxy-2,2-difluoroacetamido)methyl)-5a,5b,8,8,11a-pentamethyl-1-(prop-1-en-2-yl)-2,3,3a,4,5,5a,5b,6,7,7a,8,11,11a,11b,12,13,13a,13b-octadecahydro-1H-cyclopenta[a]chrysen-9-yl)benzoic acid] | > 100 | – |
| C=C(C)[C@@H]1CC[C@]2(CNC(=O)NCCN3CCCC3=O)CC[C@]3(C)[C@H](CC[C@@H]4[C@@]5(C)CC=C(c6ccc(C(=O)O)cc6)C(C)(C)[C@@H]5CC[C@]43C)[C@@H]12 [Example 154, 4-((1R,3aS,5aR,5bR,7aR,11aS,11bR,13aR,13bR)-5a,5b,8,8,11a-pentamethyl-3a-((3-(2-(2-oxopyrrolidin-1-yl)ethyl)ureido)methyl)-1-(prop-1-en-2-yl)-2,3,3a,4,5,5a,5b,6,7,7a,8,11,11a,11b,12,13,13a,13b-octadecahydro-1H-cyclopenta[a]chrysen-9-yl)benzoic acid] | < 100 | – |
| C=C(C)[C@@H]1CC[C@]2(CNC(=O)NCCCN3CCCC3=O)CC[C@]3(C)[C@H](CC[C@@H]4[C@@]5(C)CC=C(c6ccc(C(=O)O)cc6)C(C)(C)[C@@H]5CC[C@]43C)[C@@H]12 [Example 155, 4-((1R,3aS,5aR,5bR,7aR,11aS,11bR,13aR,13bR)-5a,5b,8,8,11a-pentamethyl-3a-((3-(3-(2-oxopyrrolidin-1-yl)propyl)ureido)methyl)-1-(prop-1-en-2-yl)-2,3,3a,4,5,5a,5b,6,7,7a,8,11,11a,11b,12,13,13a,13b-octadecahydro-1H-cyclopenta[a]chrysen-9-yl)benzoic acid] | < 100 | – |
| C=C(C)[C@@H]1CC[C@]2(CNC(=O)NCC(=O)OCC)CC[C@]3(C)[C@H](CC[C@@H]4[C@@]5(C)CC=C(c6ccc(C(=O)O)cc6)C(C)(C)[C@@H]5CC[C@]43C)[C@@H]12 [Example 156, 4-((1R,3aS,5aR,5bR,7aR,11aS,11bR,13aR,13bR)-3a-((3-(2-ethoxy-2-oxoethyl)ureido)methyl)-5a,5b,8,8,11a-pentamethyl-1-(prop-1-en-2-yl)-2,3,3a,4,5,5a,5b,6,7,7a,8,11,11a,11b,12,13,13a,13b-octadecahydro-1H-cyclopenta[a]chrysen-9-yl)benzoic acid] | < 100 | – |
| C=C(C)[C@@H]1CC[C@]2(CNC(=O)NCC(=O)O)CC[C@]3(C)[C@H](CC[C@@H]4[C@@]5(C)CC=C(c6ccc(C(=O)O)cc6)C(C)(C)[C@@H]5CC[C@]43C)[C@@H]12 [Example 157, 4-((1R,3aS,5aR,5bR,7aR,11aS,11bR,13aR,13bR)-3a-((3-(carboxymethyl)ureido)methyl)-5a,5b,8,8,11a-pentamethyl-1-(prop-1-en-2-yl)-2,3,3a,4,5,5a,5b,6,7,7a,8,11,11a,11b,12,13,13a,13b-octadecahydro-1H-cyclopenta[a]chrysen-9-yl)benzoic acid] | – | 40 |
| C=C(C)[C@@H]1CC[C@]2(CNC(=O)NCC(=O)OC)CC[C@]3(C)[C@H](CC[C@@H]4[C@@]5(C)CC=C(c6ccc(C(=O)O)cc6)C(C)(C)[C@@H]5CC[C@]43C)[C@@H]12 [Example 158, 4-((1R,3aS,5aR,5bR,7aR,11aS,11bR,13aR,13bR)-3a-((3-(2-methoxy-2-oxoethyl)ureido)methyl)-5a,5b,8,8,11a-pentamethyl-1-(prop-1-en-2-yl)-2,3,3a,4,5,5a,5b,6,7,7a,8,11,11a,11b,12,13,13a,13b-octadecahydro-1H-cyclopenta[a]chrysen-9-yl)benzoic acid] | < 100 | – |
| C=C(C)[C@@H]1CC[C@]2(CNC(=O)Nc3cccnc3)CC[C@]3(C)[C@H](CC[C@@H]4[C@@]5(C)CC=C(c6ccc(C(=O)O)cc6)C(C)(C)[C@@H]5CC[C@]43C)[C@@H]12 [Example 159, 4-((1R,3aS,5aR,5bR,7aR,11aS,11bR,13aR,13bR)-5a,5b,8,8,11a-pentamethyl-1-(prop-1-en-2-yl)-3a-((3-pyridin-3-ylureido)methyl)-2,3,3a,4,5,5a,5b,6,7,7a,8,11,11a,11b,12,13,13a,13b-octadecahydro-1H-cyclopenta[a]chrysen-9-yl)benzoic acid] | – | 10 |
| C=C(C)[C@@H]1CC[C@]2(CNC(=O)Nc3ccc(C(=O)OC)cc3)CC[C@]3(C)[C@H](CC[C@@H]4[C@@]5(C)CC=C(c6ccc(C(=O)O)cc6)C(C)(C)[C@@H]5CC[C@]43C)[C@@H]12 [Example 160, 4-((1R,3aS,5aR,5bR,7aR,11aS,11bR,13aR,13bR)-3a-((3-(4-(methoxycarbonyl)phenyl)ureido)methyl)-5a,5b,8,8,11a-pentamethyl-1-(prop-1-en-2-yl)-2,3,3a,4,5,5a,5b,6,7,7a,8,11,11a,11b,12,13,13a,13b-octadecahydro-1H-cyclopenta[a]chrysen-9-yl)benzoic acid] | – | 260 |
| C=C(C)[C@@H]1CC[C@]2(CNC(=O)NCCN3CCS(=O)(=O)CC3)CC[C@]3(C)[C@H](CC[C@@H]4[C@@]5(C)CC=C(c6ccc(C(=O)O)cc6)C(C)(C)[C@@H]5CC[C@]43C)[C@@H]12 [Example 161, 4-((1R,3aS,5aR,5bR,7aR,11aS,11bR,13aR,13bR)-3a-((((2-(1,1-dioxido-4-thiomorpholinyl)ethyl)carbamoyl)amino)methyl)-1-isopropenyl-5a,5b,8,8,11a-pentamethyl-2,3,3a,4,5,5a,5b,6,7,7a,8,11,11a,11b,12,13,13a,13b-octadecahydro-1H-cyclopenta[a]chrysen-9-yl)benzoic acid] | < 100 | – |
| C=C(C)[C@@H]1CC[C@]2(CNC(=O)OCCN3CCCC3=O)CC[C@]3(C)[C@H](CC[C@@H]4[C@@]5(C)CC=C(c6ccc(C(=O)O)cc6)C(C)(C)[C@@H]5CC[C@]43C)[C@@H]12 [Example 162, 4-((1R,3aS,5aR,5bR,7aR,11aS,11bR,13aR,13bR)-5a,5b,8,8,11a-pentamethyl-3a-(((2-(2-oxopyrrolidin-1-yl)ethoxy)carbonylamino)methyl)-1-(prop-1-en-2-yl)-2,3,3a,4,5,5a,5b,6,7,7a,8,11,11a,11b,12,13,13a,13b-octadecahydro-1H-cyclopenta[a]chrysen-9-yl)benzoic acid] | < 100 | – |
| C=C(C)[C@@H]1CC[C@]2(CNC(=O)OCCN3CCNCC3)CC[C@]3(C)[C@H](CC[C@@H]4[C@@]5(C)CC=C(c6ccc(C(=O)O)cc6)C(C)(C)[C@@H]5CC[C@]43C)[C@@H]12 [Example 163, 4-((1R,3aS,5aR,5bR,7aR,11aS,11bR,13aR,13bR)-5a,5b,8,8,11a-pentamethyl-3a-(((2-(piperazin-1-yl)ethoxy)carbonylamino)methyl)-1-(prop-1-en-2-yl)-2,3,3a,4,5,5a,5b,6,7,7a,8,11,11a,11b,12,13,13a,13b-octadecahydro-1H-cyclopenta[a]chrysen-9-yl)benzoic acid] | < 100 | – |
